Results taken from article PMC6035379 (Journal of Ginseng Research, 2017).
Where a name gives a salt, the structure may show the parent alone.

What was measured:
[1] = format: in vivo; conditions: rats; fexofenadine 10 mg/kg oral; control group without KRG
CYP1A1 = conditions: HepG2 cells; cited from earlier work
CYP3A4 = conditions: cited from earlier work
CYP2C9 = conditions: cited from earlier work
CYP2C19 = conditions: cited from earlier work
CYP2D6 = conditions: cited from earlier work
drug-resistant KBV cells = conditions: cited from earlier work
P-gp = conditions: cited from earlier work

Structure (SMILES): CC(C)(C(=O)O)c1ccc(C(O)CCCN2CCC(C(O)(c3ccccc3)c3ccccc3)CC2)cc1 (stereo not drawn) [fexofenadine, Fexofenadine hydrochloride]
- mean maximum concentration of fexofenadine [1]: 32 ng/mL

Structure (SMILES): CC(C)=CCC[C@](C)(O[C@@H]1O[C@H](CO[C@@H]2OC[C@H](O)[C@H](O)[C@H]2O)[C@@H](O)[C@H](O)[C@H]1O)[C@H]1CC[C@]2(C)[C@@H]1[C@H](O)C[C@@H]1[C@@]3(C)CC[C@H](O[C@@H]4O[C@H](CO)[C@@H](O)[C@H](O)[C@H]4O[C@@H]4O[C@H](CO)[C@@H](O)[C@H](O)[C@H]4O)C(C)(C)[C@@H]3CC[C@]12C [ginsenoside Rb2]
- mRNA level of CYP1A1 (CYP1A1): significantly increased

Structure (SMILES): CC(C)=CCC[C@](C)(O[C@@H]1O[C@H](CO)[C@@H](O)[C@H](O)[C@H]1O)[C@H]1CC[C@]2(C)[C@@H]1[C@H](O)C[C@@H]1[C@@]3(C)CC[C@H](O[C@@H]4O[C@H](CO)[C@@H](O)[C@H](O)[C@H]4O[C@@H]4O[C@H](CO)[C@@H](O)[C@H](O)[C@H]4O)C(C)(C)[C@@H]3CC[C@]12C [ginsenoside Rd]
- inhibition of CYP3A4 (CYP3A4): weak inhibition
- inhibition of CYP2C9 (CYP2C9): weak inhibition
- inhibition of CYP2C19 (CYP2C19): weak inhibition
- inhibition of CYP2D6 (CYP2D6): weak inhibition

Structure (SMILES): CC(C)=CCC[C@](C)(O[C@@H]1O[C@H](CO)[C@@H](O)[C@H](O)[C@H]1O)[C@H]1CC[C@]2(C)[C@@H]1[C@H](O)C[C@@H]1[C@@]3(C)CC[C@H](O)C(C)(C)[C@@H]3[C@@H](O[C@@H]3O[C@H](CO)[C@@H](O)[C@H](O)[C@H]3O)C[C@]12C [ginsenoside Rg1]
- mRNA level of CYP1A1 (CYP1A1): significantly increased

Structure (SMILES): CC(C)=CCC[C@](C)(O)[C@H]1CC[C@]2(C)[C@@H]1[C@H](O)C[C@@H]1[C@@]3(C)CC[C@H](O[C@@H]4O[C@H](CO)[C@@H](O)[C@H](O)[C@H]4O[C@@H]4O[C@H](CO)[C@@H](O)[C@H](O)[C@H]4O)C(C)(C)[C@@H]3CC[C@]12C [ginsenoside Rg3]
- (3H) vinblastine efflux (drug-resistant KBV cells): inhibited

Structure (SMILES): Cc1ncc2n1-c1ccc(Cl)cc1C(c1ccccc1F)=NC2 [midazolam]
- transport by P-gp (P-gp): not transported
